Tests used:
[1] = test system: 3T3EGFR; assay: BrdU incorporation assay, 3T3EGFR, PDGF; type: cell-based
[2] = target: human FLK-1 (Homo sapiens, UniProt P35968); assay: FLK-1 autophosphorylation assay in vitro (ELISA); type: biochemical; design: host or cells: FLK-1/NIH cells (NIH fibroblast line); lysate captured on L4 or E38 anti-FLK-1 antibody; conditions: FLK-1 autophosphorylation in vitro, immobilized FLK-1 from FLK-1/NIH cell lysate
Source text: The following protocol describes the ELISA procedures used to determine the FLK-1 autophosphorylation activity in vitro. The procedure also describes the protocol for the initial screening of indolinone compounds. 2. FLK-1/NIH cells: NIH fibroblast line overexpressing human FLK-1 clone 3 (MPI, Martinsried, Germany). 6. L4 or […]: monoclonal antibody specific for FLK-1; purified by protein-A agarose affinity chromatography (SUGEN, Inc., Redwood City, Calif.). 2. Remove the medium and wash the cells twice with PBS. Lyse with HNTG lysis buffer. Collect all lysates and mix them on a vortex for 20-30 seconds. 1. Coat Corning 96-well ELISA plates with 2 ug/well of purified L4 (or […]) in 100 μL of PBS overnight at 4° C. 5. Dilute lysate in PBS to give final concentration of 50 ug/100 μL. Add 100 μL of diluted lysate per well. Incubate with shaking at 4° C. overnight. 7. Add 80 μL of kinase buffer to the wells (negative control wells get 90 μL). 8. Dilue compounds (normally 10 fold) into wells of a polypropylene plate containing 20% DMSO in TBS. 9. Add 10 μL of the prediluted compounds to the ELISA wells containing immobilized FLK-1 and shake. Control wells receive no compound. […] When the color in the positive control wells reaches an absorbance of about 0.35-0.4, read plates on Dynatech MR7000 ELISA reader. The IC50 values measured in the above assay for the compound of formula VI are depicted in Table 1: […]

[3] = target: T1, chimeric receptor containing the EGFR extracellular domain and intracellular HER2 kinase domain (Homo sapiens, UniProt P04626); assay: EGF receptor-HER2 phosphorylation assay in whole EGFR-NIH3T3 cells (ELISA); type: cell-based; conditions: NIH3T3 cells with chimeric receptor, EGF stimulation
T1 construct: P00533 (Epidermal growth factor receptor)
T1 sequence (P04626 720-987 limits assumed, change not shown): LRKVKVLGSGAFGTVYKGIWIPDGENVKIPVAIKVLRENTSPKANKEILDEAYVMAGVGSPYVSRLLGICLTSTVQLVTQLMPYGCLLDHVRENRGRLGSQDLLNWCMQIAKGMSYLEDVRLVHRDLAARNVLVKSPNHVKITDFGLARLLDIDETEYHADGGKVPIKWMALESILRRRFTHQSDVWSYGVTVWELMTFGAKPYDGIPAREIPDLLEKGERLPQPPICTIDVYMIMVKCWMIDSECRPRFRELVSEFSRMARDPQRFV
Procedure: HER2 kinase activity in whole EGFR-NIH3T3 cells was measured as described below. 1. Coat ELISA plates (Corning, 96 well, Cat. #25805-96) with 05-101 antibody at 0.5 µg per well in PBS, 100 μL final volume/well, and store overnight at 4° C. Coated plates are good for up to 10 days when stored at 4° C. 1. An NIH3T3 cell line overexpressing a chimeric receptor containing the EGFR extracellular domain and intracellular HER2 kinase domain can be used for this assay. 3. Resuspend cells in seeding medium (DMEM, 0.5% bovine serum), and count the cells using trypan blue. Viability above 90% is acceptable. Seed cells in DMEM medium (0.5% bovine serum) at a density of 10,000 cells per well, 100 μL per well, in a 96 well microtiter plate. Incubate seeded cells in 5% CO2 at 37° C. for about 40 hours. 1. Check seeded cells for contamination using an inverted microscope. […] The maximum phosphotyrosine signal is determined by subtracting the value of the negative controls from the positive controls. The percent inbibitation of phosphotyrosine content for extract-containing wells is then calculated, after subtraction of the negative controls. The IC50 values measured in the EGF receptor-HER2 phosphorylation assay for the compound of formula VI are depicted in Table 6: […]

human FLK-1, sequence (P35968 20-1356): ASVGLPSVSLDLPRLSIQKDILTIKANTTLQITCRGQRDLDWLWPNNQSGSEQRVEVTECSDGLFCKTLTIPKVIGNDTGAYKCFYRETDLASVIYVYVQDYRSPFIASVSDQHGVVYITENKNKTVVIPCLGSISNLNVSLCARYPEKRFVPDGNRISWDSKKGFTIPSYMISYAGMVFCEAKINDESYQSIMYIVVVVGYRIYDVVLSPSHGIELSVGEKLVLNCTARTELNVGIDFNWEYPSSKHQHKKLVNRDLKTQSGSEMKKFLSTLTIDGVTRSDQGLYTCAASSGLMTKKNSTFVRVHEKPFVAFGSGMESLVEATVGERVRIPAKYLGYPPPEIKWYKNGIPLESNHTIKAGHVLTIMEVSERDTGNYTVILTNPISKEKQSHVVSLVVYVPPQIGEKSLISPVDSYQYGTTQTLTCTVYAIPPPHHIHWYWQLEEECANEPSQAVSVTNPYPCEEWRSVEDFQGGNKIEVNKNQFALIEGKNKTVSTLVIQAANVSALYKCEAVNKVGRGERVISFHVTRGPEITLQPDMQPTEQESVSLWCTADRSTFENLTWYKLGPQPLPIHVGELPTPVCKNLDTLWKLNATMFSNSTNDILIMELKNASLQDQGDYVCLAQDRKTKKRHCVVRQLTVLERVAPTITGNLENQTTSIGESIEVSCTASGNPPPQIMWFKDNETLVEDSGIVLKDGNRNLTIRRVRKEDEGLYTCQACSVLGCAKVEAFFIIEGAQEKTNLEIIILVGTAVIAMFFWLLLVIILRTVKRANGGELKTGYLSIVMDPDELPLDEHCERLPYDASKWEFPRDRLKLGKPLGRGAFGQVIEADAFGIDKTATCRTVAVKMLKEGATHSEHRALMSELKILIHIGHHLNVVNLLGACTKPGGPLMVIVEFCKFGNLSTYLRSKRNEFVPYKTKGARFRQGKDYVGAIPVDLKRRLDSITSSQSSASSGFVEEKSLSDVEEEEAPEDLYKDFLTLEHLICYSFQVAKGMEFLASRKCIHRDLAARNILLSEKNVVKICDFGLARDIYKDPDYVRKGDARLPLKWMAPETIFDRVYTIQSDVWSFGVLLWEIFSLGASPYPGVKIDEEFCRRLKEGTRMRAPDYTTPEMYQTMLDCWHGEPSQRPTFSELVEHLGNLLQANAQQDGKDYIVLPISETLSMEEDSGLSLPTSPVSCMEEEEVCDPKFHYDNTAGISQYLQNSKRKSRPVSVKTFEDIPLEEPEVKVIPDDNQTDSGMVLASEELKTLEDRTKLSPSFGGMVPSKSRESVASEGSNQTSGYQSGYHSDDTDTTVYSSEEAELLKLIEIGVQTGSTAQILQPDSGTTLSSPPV

IC50 [2]: > 50 µM
IC50 [3]: 8.72 µM
Structure (SMILES): Cc1cc(/C=C2/C(=O)Nc3ccccc32)c(C)c2c1[nH]c1ccccc12 [VI]
IC50 [1]: 7 µM

Source: patent publication US6514981B1, “Methods of modulating tyrosine protein kinase function with indolinone compounds” (Sugen, Inc., priority 1998, dated 2003)
